Assay results taken from patent US12728121B2, “Compositions and methods for treating idiopathic pulmonary fibrosis” (Seyltx, Inc., priority 2019, dated 2026).

What was measured:
Format in all cases: in vivo, Mouse/C57BL/6
[1] = test system: BLM-induced fibrosis; experiment: Bleomycin (BLM)-induced lung fibrosis in mice: Gomori's Trichrome score of lung sections; conditions: for Trichrome score (average) / % reduction in fibrosis: day 21; for Trichrome score (average): BLM 2.5 U/kg intratracheal, p.o. once daily 14 days from day 7, mg/kg: Pirfenidone 300, Bromantane 20, Ifenoprodil 30, Radiprodil 30, Bemithyl 200, Dexamethasone 0.25, Repirinast 90, Normal 1.00, Vehicle 4.59; for Trichrome score response versus BLM-vehicle group (in words) / percent reduction in lung fibrosis in comparison to the BLM-vehicle group (in words): doses as Table 1, order: Dexamethasone and Repirinast, followed by Ifenprodil and Radiprodil; for % reduction in fibrosis: from Trichrome scores relative to vehicle and normal groups, doses as Table 1, p.o. once daily 14 days; for improvement in lung fibrosis, loss of body weight, Trichrome score and mortality as compared to BLM-vehicle (conclusion, in words): oral administration, Dexamethasone 0.25, Repirinast 90, Ifenprodil 30, Radiprodil 30 mg/kg
Description: (§1) The mouse species or strain was Mouse/C57BL/6, the mice being 8-10 week old males. Nine groups of 10 mice each were obtained from Charles River Laboratories. Each group was randomized based on body weight. Bleomycin (BLM) was obtained from Euroasias.
(§2) The mice were anesthetized with isoflurane/O2 mixture. Bleomycin (BLM) was then administered to the mice intratracheally (PennCentury)—single bolus, at 2.5 U/kg body weight in 50 μl sterile saline.
(§3) Seven days after the bleomycin is administered, and fibroblasts have generally proliferated, six of the nine groups of IT bleomycin challenged mice were be dosed orally (p.o.) once a day with Bromantane, Ifenoprodil, Radiprodil, Bemithyl, Dexamethasone, or Repirinast at specified amounts per kg of body weight (mg/kg) daily for 14 consecutive days. The amounts are set out in Table 1 below. The vehicle used was 0.5% carboxymethyl cellulose (CMC). Prifenidone was also prepared in 0.5% CMC and administrated orally once a day to one of the nine IT bleomycin challenged mice groups beginning for 14 consecutive days. Vehicle and no-BLM control groups received 0.5% CMC orally for 14 consecutive days.
On day 21 of the study, 4 hours after the last dose, the mice were sacrificed and plasma was collected and frozen for cytokine analysis (testing for IL-6, IL-12, TGFβ, IL-13 proteins, or fibrosis markers). Bronchoalveolar lavage fluid (BALF) was collected and frozen for optional cytokine analyses and cell counts pending the initial data. The lungs were then excised, weighed and fixed in formalin. Gomori's Trichrome stain, a histological stain, was used to determine collagen content.
Trichrome Score: A trichrome score measures the level of scarring to the lungs caused by the disease. The greater the trichrome score, the greater the scarring.
Formalin fixed lung samples were submitted to affiliated histopathology laboratory for histopathological analysis subjected Gomori's Trichrome stain, a histological stain, which was used to determine collagen content.
Each lung was divided into ten sections. All ten sections were stained and evaluated. A board certified veterinarian pathologist assessed the presence of lung fibrosis and severity score—The expression of collagen (associated with fibrosis) is determined from the ratio of the stained area versus the total area of the lung section.

[2] = test system: BLM-induced fibrosis; experiment: Bleomycin (BLM)-induced lung fibrosis in mice: mortality rate over 21 days; conditions: doses as Table 1; for Fatality Number: deaths/mice per group over 21 days, Vehicle 2/10; for Percent Fatality: over 21 days, Vehicle 20%; for percent survival (in words): order: Dexamethasone and Repirinast, followed by Ifenprodil and Radiprodil
Description: as §1, §2, §3
Mortality Rate: the mortality rate in each group was also observed over 21 days.

[3] = Bleomycin (BLM)-induced lung fibrosis in mice: body weight over 21 days; conditions: for Percent Change in Body Weight / Body Weight: doses as Table 1; for Body Weight: group mean; for changes in body weight as compared to the BLM-vehicle group (in words): doses as Table 1, p.o. once daily
Description: as §1, §2, §3
Body Weight: The body weights were measured over 21 days using a laboratory balance.

Row | Compound | Trichrome score (average) [1] | Trichrome score response versus BLM-vehicle group (in words) [1] | % reduction in fibrosis [1] [%] | Fatality Number [2] | Percent Fatality [2] [%] | Percent Change in Body Weight ([3]; 7-Nov) [%] | Body Weight ([3]; 7-Nov) [g] | Percent Change in Body Weight ([3]; 8-Nov) [%] | Body Weight ([3]; 8-Nov) [g] | Percent Change in Body Weight ([3]; 9-Nov) [%] | Body Weight ([3]; 9-Nov) [g] | Percent Change in Body Weight ([3]; 12-Nov) [%] | Body Weight ([3]; 12-Nov) [g] | Percent Change in Body Weight ([3]; 14-Nov) [%] | Body Weight ([3]; 14-Nov) [g] | Percent Change in Body Weight ([3]; 16-Nov) [%] | Body Weight ([3]; 16-Nov) [g] | Percent Change in Body Weight ([3]; 20-Nov) [%] | Body Weight ([3]; 20-Nov) [g] | Percent Change in Body Weight ([3]; 22-Nov) [%] | other results
1 | Cc1ccc(=O)n(-c2ccccc2)c1 [Pirfenidone (+), 5-methyl-1-phenylpyridin-2(1H)-one] | 4.09 | minimal improvement | 13.9 | 2/10 | 20 | 0.0 | 24.0 | 0.3 | 24.2 | −0.5 | 23.5 | −2.2 | 21.7 | −2.9 | 21.0 | −3.2 | 20.8 | −3.7 | 20.3 | −2.9 | Body Weight ([3]; 22-Nov): 21.1 g; Percent Change in Body Weight ([3]; 26-Nov): −3.1%; Body Weight ([3]; 26-Nov): 20.9 g; Percent Change in Body Weight ([3]; 28-Nov): −3.2%; Body Weight ([3]; 28-Nov): 20.7 g
2 | O=C(Nc1ccc2[nH]c(=O)oc2c1)C(=O)N1CCC(Cc2ccc(F)cc2)CC1 [Radiprodil, 2-[4-[(4-fluorophenyl)methyl]piperidin-1-yl]-2-oxo-N-(2-oxo-3H-1,3-benzoxazol-6-yl)acetamide] | 3.45 | response was better | 31.8 | 2/10 | 20 | 0.0 | 23.6 | 0.0 | 23.6 | −0.4 | 23.2 | −2.3 | 21.3 | −1.8 | 21.8 | −1.0 | 22.6 | −1.2 | 22.4 | −0.3 | percent reduction in lung fibrosis in comparison to the BLM-vehicle group (in words) [1]: higher; improvement in lung fibrosis, loss of body weight, Trichrome score and mortality as compared to BLM-vehicle (conclusion, in words) [1]: showed improvement; percent survival (in words) [2]: higher; Body Weight ([3]; 22-Nov): 23.3 g; Percent Change in Body Weight ([3]; 26-Nov): 0.3%; Body Weight ([3]; 26-Nov): 24.0 g; Percent Change in Body Weight ([3]; 28-Nov): 0.4%; Body Weight ([3]; 28-Nov): 24.0 g; changes in body weight as compared to the BLM-vehicle group (in words) [3]: showed improvement beginning on Day 5
3 | Cc1ccc2c([nH]c(=O)c3c(=O)cc(C(=O)OCCC(C)C)oc32)c1C [Repirinast, Isopentyl 7,8-dimethyl-4,5-dioxo-5,6-dihydro-4H-pyrano[3,2-c]quinoline-2-carboxylate] | 3.16 | response was better | 39.8 | 1/10 | 10 | 0.0 | 23.5 | 0.2 | 23.7 | −0.3 | 23.2 | −2.0 | 21.5 | −1.8 | 21.8 | −2.5 | 21.1 | −2.2 | 21.4 | −1.3 | percent reduction in lung fibrosis in comparison to the BLM-vehicle group (in words) [1]: higher; improvement in lung fibrosis, loss of body weight, Trichrome score and mortality as compared to BLM-vehicle (conclusion, in words) [1]: showed improvement; percent survival (in words) [2]: higher; Body Weight ([3]; 22-Nov): 22.3 g; Percent Change in Body Weight ([3]; 26-Nov): −1.6%; Body Weight ([3]; 26-Nov): 21.9 g; Percent Change in Body Weight ([3]; 28-Nov): −1.3%; Body Weight ([3]; 28-Nov): 22.3 g; changes in body weight as compared to the BLM-vehicle group (in words) [3]: No significant differences
